Results reported in PubChem BioAssay AID1259408 (Genetic Toxicology Data Bank (GENE-TOX), 2018).
Calls of active or inactive are those of the source. The rule behind the calls is not given here.

Test system: GENE-TOX genotoxicity assays, various organisms and cells
Experiment: GENE-TOX mutagenicity studies
Conditions: for call: Assay Type: In vivo carcinogenicity studies
[1] = Species/Cell Type: Arabidopsis species, Assay Type: Gene mutation, Assay Code: ARM+D, Dose Response: With dose response, Evaluation Type: Evaluation A (Pre-1980)
[2] = Species/Cell Type: Nonhuman, Assay Code: CCG+, Evaluation Type: Evaluation A (Pre-1980)
[3] = Species/Cell Type: Nonhuman, Assay Type: Sister-chromatid exchange (SCE) in vitro, Assay Code: SC2+D, Dose Response: With dose response, Evaluation Type: Evaluation B (Post-1980)
[4] = Species/Cell Type: Saccharomyces cerevisiae, Assay Type: Mitotic recombination or gene conversion, Assay Code: YEC+, Evaluation Type: Evaluation A (Pre-1980)
[5] = Species/Cell Type: Saccharomyces cerevisiae, Assay Type: Mitotic recombination or gene conversion, Assay Code: YEH+, Evaluation Type: Evaluation A (Pre-1980)
[6] = Species/Cell Type: Saccharomyces cerevisiae, Assay Type: Reverse gene mutation, Assay Code: YER+, Evaluation Type: Evaluation A (Pre-1980)
[7] = Species/Cell Type: Salmonella typhimurium (one or more of the five standard strains: TA98, TA100, TA1535, TA1537, and TA1538), Assay Type: Histidine reverse gene mutation, Ames assay, Assay Code: SAL+, Evaluation Type: Evaluation A (Pre-1980)
[8] = Species/Cell Type: Salmonella typhimurium (one or more of the five standard strains: TA98, TA100, TA1535, TA1537, and TA1538), Assay Type: Histidine reverse gene mutation, Ames assay, Assay Code: SAL+*, Activation: With metabolic activation, Evaluation Type: Evaluation A (Pre-1980)
[9] = Species/Cell Type: Nonhuman, Assay Type: Chromosome aberrations in vitro, Assay Code: CY&+, Evaluation Type: Evaluation A (Pre-1980)
[10] = Species/Cell Type: Rodents, Sex: Male, Assay Type: Dominant lethal test, Assay Code: DLT-, Evaluation Type: Evaluation A (Pre-1980)
[11] = Species/Cell Type: Allium cepa, Assay Type: Chromosome aberrations, Assay Code: ALC+, Evaluation Type: Evaluation A (Pre-1980)

Question: `CN(N=O)C(=O)NC(N)=O` was tested. Which mutagenic call [1] did it give?
Answer: active; positive

Question: With `CCCCN(N=O)C(=O)OCC` as the compound, how does the call [2] read?
Answer: active; positive

Question: And the mutagenic call (Species/Cell Type: Nonhuman, Assay Type: Sister-chromatid exchange (SCE) in vitro, Assay Code: SC2+, Evaluation Type: Evaluation A (Pre-1980))?
Answer: active; positive

Question: Which mutagenic call (Species/Cell Type: Drosophila melanogaster, Assay Type: Sex-linked recessive lethal gene mutation, Assay Code: SRL-, Evaluation Type: Evaluation A (Pre-1980)) does the source give for `ClCCl` here?
Answer: inactive; negative

Question: What about the mutagenic call (Species/Cell Type: Fischer rat embryo (RLV/1706) cells, Assay Type: Cell transformation, viral enhanced, Assay Code: CTR+, Evaluation Type: Evaluation A (Pre-1980)) of the same compound?
Answer: active; positive

Question: What about the mutagenic call (Species/Cell Type: Mammalian polychromatic erythrocytes, Assay Type: Micronucleus test, chromosome aberrations, Assay Code: MNT-, Evaluation Type: Evaluation B (Post-1980)) of the same compound?
Answer: inactive; negative

Question: What about the mutagenic call [3] of the same compound?
Answer: active; positive

Question: And the mutagenic call [4]?
Answer: active; positive

Question: And the mutagenic call [5]?
Answer: active; positive

Question: What about the mutagenic call [6] of the same compound?
Answer: active; positive

Question: What about the mutagenic call [7] of the same compound?
Answer: active; positive

Question: What does the source list for `O=NN1CCNC1=O`?
Answer: mutagenic call [1]: active; positive; mutagenic call (Species/Cell Type: Saccharomyces cerevisiae, Assay Type: Forward gene mutation, Assay Code: YEF+, Evaluation Type: Evaluation A (Pre-1980)): active; positive; mutagenic call [4]: active; positive; mutagenic call [5]: active; positive; mutagenic call [6]: active; positive; mutagenic call [7]: active; positive

Question: How did the mutagenic call [8] turn out when `Cc1ccc2c(C)c3ccc4ccccc4c3nc2c1` was run?
Answer: active; positive

Question: For `Nc1nc2n[nH]nc2c(=O)[nH]1`, which mutagenic call (Species/Cell Type: Neurospora crassa, Assay Type: Aneuploidy, chromosome aberrations, Assay Code: NEN-, Evaluation Type: Evaluation A (Pre-1980)) is on record?
Answer: inactive; negative

Question: With `COc1cc(N=Nc2ccccc2)ccc1[N+](=O)[O-]` as the compound, how does the mutagenic call [7] read?
Answer: active; positive

Question: Which mutagenic call [7] does the source give for `O=C(O)CSc1ccc2c3c(cccc13)C(=O)c1ccccc1-2` here?
Answer: active; positive

Question: `OC1C=Cc2c(c3cc4ccccc4cc3c3ccccc23)[C@H]1O` (some centres undefined) was tested. Which mutagenic call [3] did it give?
Answer: active; positive

Question: Which results are given for `Cc1ccc2oc(=O)ccc2c1`?
Answer: mutagenic call (Species/Cell Type: Allium cepa, Assay Type: Chromosome aberrations, Assay Code: ALC+D, Dose Response: With dose response, Evaluation Type: Evaluation A (Pre-1980)): active; positive; mutagenic call [9]: active; positive

Question: With `OCc1c2ccccc2c(CO)c2c1ccc1ccccc12` as the compound, how does the mutagenic call (Species/Cell Type: Chinese hamster lung (V79) cells, Assay Type: Forward gene mutation at the HPRT or ouabain locus, Assay Code: V79-*, Activation: With metabolic activation, Evaluation Type: Evaluation A (Pre-1980)) read?
Answer: inactive; negative

Question: What about the call (Species/Cell Type: Nonhuman, Assay Code: CCGT, Evaluation Type: Evaluation A (Pre-1980)) of the same compound?
Answer: no conclusion

Question: Which mutagenic call (Species/Cell Type: Mammalian polychromatic erythrocytes, Assay Type: Micronucleus test, chromosome aberrations, Assay Code: MNTT, Evaluation Type: Evaluation A (Pre-1980)) does the source give for `Clc1cccc(-c2ccc(Cl)c(Cl)c2Cl)c1Cl` here?
Answer: no conclusion

Question: And the mutagenic call (Species/Cell Type: Mouse, Sex: Male, Assay Type: Sperm morphology, Assay Code: SPI-, Evaluation Type: Evaluation A (Pre-1980))?
Answer: inactive; negative

Question: What about the mutagenic call [10] of the same compound?
Answer: inactive; negative

Question: And the mutagenic call (Species/Cell Type: Syrian hamster embryo (SHE) cells, Assay Type: Cell transformation, clonal assay, Assay Code: CTC-, Evaluation Type: Evaluation A (Pre-1980))?
Answer: inactive; negative

Question: For `CC1=NN(c2ccccc2)C(=O)C1`, which call (Species/Cell Type: Nonhuman, Assay Code: CCG-L, Evaluation Type: Evaluation A (Pre-1980)) is on record?
Answer: inactive; negative

Question: What does the source list for `Clc1ccc(C(c2ccc(Cl)cc2)C(Cl)Cl)cc1`?
Answer: mutagenic call (Species/Cell Type: Drosophila melanogaster, Assay Type: Sex-linked recessive lethal gene mutation, Assay Code: SRLT, Evaluation Type: Evaluation A (Pre-1980)): no conclusion; mutagenic call (Species/Cell Type: Escherichia coli polA (W3119 vs P3478), Assay Type: Rec-assay, DNA effects (bacterial DNA repair), Assay Code: RE1T, Evaluation Type: Evaluation A (Pre-1980)): no conclusion; mutagenic call [9]: active; positive; mutagenic call (Species/Cell Type: Serratia marcesens, Assay Type: Reverse gene mutation, host-mediated assay, Assay Code: HMC+, Evaluation Type: Evaluation A (Pre-1980)): active; positive

Question: Which mutagenic call (Species/Cell Type: Mammalian polychromatic erythrocytes, Assay Type: Micronucleus test, chromosome aberrations, Assay Code: MNT+, Evaluation Type: Evaluation B (Post-1980)) does the source give for `O[C@H]1[C@H]2c3cc4c(cc3CN3CCC(=C[C@@H]1O)[C@H]23)OCO4` here?
Answer: active; positive

Question: `C[n+]1ccc(-c2cc[n+](C)cc2)cc1` was tested. Which mutagenic call [11] did it give?
Answer: active; positive

Question: What about the mutagenic call (Species/Cell Type: Hordeum vulgare (barley), Assay Type: Chromosome aberrations, Assay Code: HOC+, Evaluation Type: Evaluation A (Pre-1980)) of the same compound?
Answer: active; positive

Question: And the mutagenic call [3]?
Answer: active; positive

Question: And the mutagenic call [10]?
Answer: inactive; negative

Question: What about the mutagenic call [4] of the same compound?
Answer: active; positive

Question: What about the mutagenic call (Species/Cell Type: Vicia faba, Assay Type: Chromosome aberrations, Assay Code: VIC-, Evaluation Type: Evaluation A (Pre-1980)) of the same compound?
Answer: inactive; negative

Question: For `[Cl][Nb]([Cl])([Cl])([Cl])[Cl]`, which mutagenic call (Species/Cell Type: Bacillus subtilis (H17 vs M45), Assay Type: Rec-assay, spot test, DNA effects (bacterial DNA repair), Assay Code: REW-, Evaluation Type: Evaluation A (Pre-1980)) is on record?
Answer: inactive; negative

Question: How did the mutagenic call [11] turn out when `C=CC1C(C)OC(=O)C1C(C)=O` (centres undefined) was run?
Answer: active; positive

Question: Which mutagenic call (Species/Cell Type: Bacillus subtilis (H17 vs M45), Assay Type: Rec-assay, spot test, DNA effects (bacterial DNA repair), Assay Code: REWT, Evaluation Type: Evaluation A (Pre-1980)) does the source give for `CC(=O)Oc1c(Cl)c(Cl)c(Cl)c(Cl)c1Cl` here?
Answer: no conclusion

Question: `Cc1c2c(c3ccc4ccccc4c3c1C)CCC2=O` was tested. Which mutagenic call [8] did it give?
Answer: active; positive

Question: With `O=C1C=C(N2CC2)C(=O)C(N2CC2)=C1N1CC1` as the compound, how does the mutagenic call (Species/Cell Type: Drosophila melanogaster, Assay Type: Sex-linked recessive lethal gene mutation, Assay Code: SRL+, Evaluation Type: Evaluation A (Pre-1980)) read?
Answer: active; positive

Question: And the mutagenic call (Species/Cell Type: Drosophila melanogaster, Sex: Male, Assay Type: Heritable translocation test, chromosome aberrations, Assay Code: DHT+, Evaluation Type: Evaluation A (Pre-1980))?
Answer: active; positive

Question: What about the mutagenic call (Species/Cell Type: Glycine max (soybean), Assay Type: Gene mutation, Assay Code: GLM+, Evaluation Type: Evaluation A (Pre-1980)) of the same compound?
Answer: active; positive

Question: What about the mutagenic call (Species/Cell Type: Hordeum vulgare (barley), Assay Type: Chromosome aberrations, Assay Code: HOC+D, Dose Response: With dose response, Evaluation Type: Evaluation A (Pre-1980)) of the same compound?
Answer: active; positive

Question: And the mutagenic call (Species/Cell Type: Human lymphocytes or leukocytes, Assay Type: Chromosome aberrations in vitro, Assay Code: CY7T, Evaluation Type: Evaluation A (Pre-1980))?
Answer: no conclusion

Question: And the mutagenic call (Species/Cell Type: Human lymphocytes, Assay Type: Sister-chromatid exchange (SCE) in vitro, Assay Code: SCL+D, Dose Response: With dose response, Evaluation Type: Evaluation A (Pre-1980))?
Answer: active; positive

Question: What about the mutagenic call (Species/Cell Type: Human, Assay Type: Sister-chromatid exchange (SCE) in vitro, Assay Code: SC1+D, Dose Response: With dose response, Evaluation Type: Evaluation A (Pre-1980)) of the same compound?
Answer: active; positive

Question: What about the mutagenic call (Species/Cell Type: Mammalian germ cells, Sex: Male, Assay Type: Chromosome aberrations in vivo, Assay Code: CY9T, Evaluation Type: Evaluation A (Pre-1980)) of the same compound?
Answer: no conclusion

Question: And the mutagenic call (Species/Cell Type: Mammalian oocytes or early embryo, Assay Type: Chromosome aberrations in vivo, Assay Code: CYO+, Evaluation Type: Evaluation A (Pre-1980))?
Answer: active; positive

Question: What about the mutagenic call (Species/Cell Type: Mammalian polychromatic erythrocytes, Assay Type: Micronucleus test, chromosome aberrations, Assay Code: MNT+, Evaluation Type: Evaluation A (Pre-1980)) of the same compound?
Answer: active; positive

Question: And the mutagenic call (Species/Cell Type: Neurospora crassa, Assay Type: Forward gene mutation, Assay Code: NEF+, Evaluation Type: Evaluation A (Pre-1980))?
Answer: active; positive

Question: And the call (Species/Cell Type: Nonhuman, Assay Code: CCG+L, Evaluation Type: Evaluation A (Pre-1980))?
Answer: active; positive

Question: And the mutagenic call (Species/Cell Type: Nonhuman, Assay Type: Sister-chromatid exchange (SCE) in vitro, Assay Code: SC2+D, Dose Response: With dose response, Evaluation Type: Evaluation A (Pre-1980))?
Answer: active; positive

Question: What about the mutagenic call (Species/Cell Type: Nonhuman, Assay Type: Sister-chromatid exchange (SCE) in vivo, Assay Code: SC3+D, Dose Response: With dose response, Evaluation Type: Evaluation A (Pre-1980)) of the same compound?
Answer: active; positive

Question: What about the mutagenic call (Species/Cell Type: Rodents, Sex: Female, Assay Type: Dominant lethal test, Assay Code: DLTF+D, Dose Response: With dose response, Evaluation Type: Evaluation A (Pre-1980)) of the same compound?
Answer: active; positive

Question: And the mutagenic call (Species/Cell Type: Rodents, Sex: Male, Assay Type: Dominant lethal test, Assay Code: DLT+D, Dose Response: With dose response, Evaluation Type: Evaluation A (Pre-1980))?
Answer: active; positive

Question: What about the mutagenic call [4] of the same compound?
Answer: active; positive

Question: What about the mutagenic call [6] of the same compound?
Answer: active; positive

Question: And the mutagenic call (Species/Cell Type: Salmonella typhimurium, Escherichia coli, Serratia marcesens, Assay Type: Forward and reverse gene mutation, host-mediated assay, Assay Code: HMN+, Evaluation Type: Evaluation A (Pre-1980))?
Answer: active; positive

Question: Which results are given for `O=c1[nH]cnc2nc[nH]c12`?
Answer: mutagenic call (Species/Cell Type: Allium cepa, Assay Type: Chromosome aberrations, Assay Code: ALC-, Evaluation Type: Evaluation A (Pre-1980)): inactive; negative; mutagenic call (Species/Cell Type: Arabidopsis species, Assay Type: Gene mutation, Assay Code: ARM-, Evaluation Type: Evaluation A (Pre-1980)): inactive; negative; mutagenic call (Species/Cell Type: Nonhuman, Assay Type: Sister-chromatid exchange (SCE) in vitro, Assay Code: SC2T, Evaluation Type: Evaluation B (Post-1980)): no conclusion

Question: How did the call [2] turn out when `CC1CC(=O)O1` (centres undefined) was run?
Answer: active; positive
